In PubChem BioAssay (NCI):
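Grown in 96-well plates, cells were treated for 48 hours with each compound at five concentrations. Insufficient inhibition: endpoint recorded as highest concentration tested. TGI: total growth inhibition.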

Columns and labels:
Test in all cases: growth of human tumour cells (NCI), 48 h
A549 NSCLC = tested on: A549 NSCLC
SNB-75 CNS = tested on: SNB-75 CNS
SN12C renal = tested on: SN12C renal
UO-31 renal = tested on: UO-31 renal
IGROV1 ovarian = tested on: IGROV1 ovarian
K-562 leukemia = tested on: K-562 leukemia
EKVX NSCLC = tested on: EKVX NSCLC
SF-295 CNS = tested on: SF-295 CNS
SK-OV-3 ovarian = tested on: SK-OV-3 ovarian
OVCAR-4 ovarian = tested on: OVCAR-4 ovarian
OVCAR-5 ovarian = tested on: OVCAR-5 ovarian
SNB-19 CNS = tested on: SNB-19 CNS
SF-539 CNS = tested on: SF-539 CNS
HT29 colon = tested on: HT29 colon
HOP-62 NSCLC = tested on: HOP-62 NSCLC
DU-145 prostate = tested on: DU-145 prostate
KM12 colon = tested on: KM12 colon
LOX IMVI melanoma = tested on: LOX IMVI melanoma
M14 melanoma = tested on: M14 melanoma
SK-MEL-5 melanoma = tested on: SK-MEL-5 melanoma
RPMI-8226 leukemia = tested on: RPMI-8226 leukemia
OVCAR-3 ovarian = tested on: OVCAR-3 ovarian
CAKI-1 renal = tested on: CAKI-1 renal
MCF7 breast = tested on: MCF7 breast
MOLT-4 leukemia = tested on: MOLT-4 leukemia
UACC-257 melanoma = tested on: UACC-257 melanoma
RXF 393 renal = tested on: RXF 393 renal
TK-10 renal = tested on: TK-10 renal
U251 CNS = tested on: U251 CNS
SK-MEL-28 melanoma = tested on: SK-MEL-28 melanoma
HCT-116 colon = tested on: HCT-116 colon
UACC-62 melanoma = tested on: UACC-62 melanoma
HL-60(TB) leukemia = tested on: HL-60(TB) leukemia
T-47D breast = tested on: T-47D breast
SF-268 CNS = tested on: SF-268 CNS
SW-620 colon = tested on: SW-620 colon
PC-3 prostate = tested on: PC-3 prostate
HS 578T breast = tested on: HS 578T breast
CCRF-CEM leukemia = tested on: CCRF-CEM leukemia
ACHN renal = tested on: ACHN renal
HCT-15 colon = tested on: HCT-15 colon
NCI/ADR-RES ovarian = tested on: NCI/ADR-RES ovarian
BT-549 breast = tested on: BT-549 breast
COLO 205 colon = tested on: COLO 205 colon
NCI-H460 lung = tested on: NCI-H460 lung
SR leukemia = tested on: SR leukemia
MDA-MB-231 breast = tested on: MDA-MB-231 breast
MALME-3M melanoma = tested on: MALME-3M melanoma
OVCAR-8 ovarian = tested on: OVCAR-8 ovarian
NCI-H23 lung = tested on: NCI-H23 lung
MDA-N = tested on: MDA-N
MDA-MB-435 = tested on: MDA-MB-435
786-0 renal = tested on: 786-0 renal
NCI-H522 lung = tested on: NCI-H522 lung
NCI-H226 lung = tested on: NCI-H226 lung
A498 renal = tested on: A498 renal
HCC-2998 colon = tested on: HCC-2998 colon
HOP-92 NSCLC = tested on: HOP-92 NSCLC
SK-MEL-2 melanoma = tested on: SK-MEL-2 melanoma

`Cc1cc(S(=O)(=O)Nc2n[nH]c(Nc3ccccc3)n2)c(SSc2cc(Cl)c(C)cc2S(=O)(=O)Nc2n[nH]c(Nc3ccccc3)n2)cc1Cl` gave a TGI (A549 NSCLC) greater than 100 µM, a TGI (SNB-75 CNS) greater than 100 µM and a TGI (SN12C renal) greater than 100 µM. It also gave a TGI (UO-31 renal) greater than 100 µM, a TGI (IGROV1 ovarian) greater than 100 µM and a TGI (K-562 leukemia) greater than 100 µM. It also gave a TGI (EKVX NSCLC) greater than 100 µM, a TGI (SF-295 CNS) greater than 100 µM and a TGI (SK-OV-3 ovarian) greater than 100 µM. The TGI (OVCAR-4 ovarian) was greater than 100 µM, the TGI (OVCAR-5 ovarian) was greater than 100 µM and the TGI (SNB-19 CNS) was greater than 100 µM. It also gave a TGI (SF-539 CNS) greater than 10 µM, a TGI (HT29 colon) greater than 100 µM and a TGI (HOP-62 NSCLC) greater than 100 µM. For the same compound, the TGI (DU-145 prostate) was greater than 100 µM, the TGI (KM12 colon) was greater than 100 µM and the TGI (LOX IMVI melanoma) was greater than 100 µM. The TGI (M14 melanoma) was greater than 100 µM, the TGI (SK-MEL-5 melanoma) was greater than 100 µM and the TGI (RPMI-8226 leukemia) was greater than 100 µM. For the same compound, the TGI (OVCAR-3 ovarian) was greater than 100 µM, the TGI (CAKI-1 renal) was greater than 100 µM and the TGI (MCF7 breast) was greater than 10 µM. The TGI (MOLT-4 leukemia) was greater than 100 µM, the TGI (UACC-257 melanoma) was greater than 100 µM and the TGI (RXF 393 renal) was greater than 10 µM. For the same compound, the TGI (TK-10 renal) was greater than 100 µM, the TGI (U251 CNS) was greater than 100 µM and the TGI (SK-MEL-28 melanoma) was greater than 100 µM. For the same compound, the TGI (HCT-116 colon) was greater than 100 µM, the TGI (UACC-62 melanoma) was greater than 100 µM and the TGI (HL-60(TB) leukemia) was 61.1 µM. The TGI (T-47D breast) was greater than 100 µM, the TGI (SF-268 CNS) was greater than 100 µM and the TGI (SW-620 colon) was greater than 100 µM. It also gave a TGI (PC-3 prostate) greater than 100 µM, a TGI (HS 578T breast) greater than 100 µM and a TGI (CCRF-CEM leukemia) greater than 100 µM. It also gave a TGI (ACHN renal) greater than 100 µM, a TGI (HCT-15 colon) greater than 100 µM and a TGI (NCI/ADR-RES ovarian) greater than 100 µM. The TGI (BT-549 breast) was greater than 100 µM, the TGI (COLO 205 colon) was greater than 100 µM and the TGI (NCI-H460 lung) was greater than 100 µM. For the same compound, the TGI (SR leukemia) was greater than 100 µM, the TGI (MDA-MB-231 breast) was greater than 100 µM and the TGI (MALME-3M melanoma) was greater than 100 µM. It also gave a TGI (OVCAR-8 ovarian) greater than 100 µM, a TGI (NCI-H23 lung) greater than 100 µM and a TGI (MDA-N) greater than 100 µM. It also gave a TGI (MDA-MB-435) greater than 100 µM.

`COc1ccc(/N=N/C(=NNC(=O)c2ccc(C)cc2)c2ccc(N(C)C)cc2)cc1` gave a TGI (A549 NSCLC) greater than 100 µM, a TGI (SNB-75 CNS) greater than 100 µM and a TGI (SN12C renal) greater than 100 µM. It also gave a TGI (UO-31 renal) greater than 100 µM, a TGI (IGROV1 ovarian) greater than 100 µM and a TGI (K-562 leukemia) greater than 100 µM. For the same compound, the TGI (EKVX NSCLC) was greater than 100 µM, the TGI (SF-295 CNS) was greater than 100 µM and the TGI (786-0 renal) was greater than 100 µM. It also gave a TGI (SK-OV-3 ovarian) greater than 100 µM, a TGI (NCI-H522 lung) of 97.9 µM and a TGI (NCI-H226 lung) greater than 100 µM. The TGI (OVCAR-4 ovarian) was greater than 100 µM, the TGI (OVCAR-5 ovarian) was greater than 100 µM and the TGI (SNB-19 CNS) was greater than 100 µM. The TGI (SF-539 CNS) was greater than 100 µM, the TGI (HT29 colon) was greater than 89.8 µM and the TGI (HOP-62 NSCLC) was greater than 100 µM. It also gave a TGI (DU-145 prostate) greater than 72.7 µM, a TGI (KM12 colon) greater than 100 µM and a TGI (LOX IMVI melanoma) greater than 100 µM. The TGI (M14 melanoma) was greater than 100 µM, the TGI (SK-MEL-5 melanoma) was greater than 95.3 µM and the TGI (RPMI-8226 leukemia) was greater than 70.9 µM. It also gave a TGI (OVCAR-3 ovarian) greater than 79.4 µM, a TGI (CAKI-1 renal) greater than 100 µM and a TGI (MCF7 breast) of 56.1 µM. For the same compound, the TGI (MOLT-4 leukemia) was greater than 72.5 µM, the TGI (A498 renal) was greater than 100 µM and the TGI (UACC-257 melanoma) was greater than 91.4 µM. It also gave a TGI (RXF 393 renal) greater than 100 µM, a TGI (TK-10 renal) greater than 100 µM and a TGI (U251 CNS) greater than 100 µM. The TGI (SK-MEL-28 melanoma) was greater than 100 µM, the TGI (HCT-116 colon) was greater than 100 µM and the TGI (UACC-62 melanoma) was greater than 83.1 µM. It also gave a TGI (HL-60(TB) leukemia) greater than 67.7 µM, a TGI (T-47D breast) greater than 33.8 µM and a TGI (SF-268 CNS) greater than 100 µM. For the same compound, the TGI (SW-620 colon) was greater than 100 µM, the TGI (PC-3 prostate) was greater than 100 µM and the TGI (HS 578T breast) was greater than 100 µM. It also gave a TGI (CCRF-CEM leukemia) greater than 100 µM, a TGI (ACHN renal) greater than 89.9 µM and a TGI (HCT-15 colon) greater than 100 µM. The TGI (NCI/ADR-RES ovarian) was greater than 100 µM, the TGI (BT-549 breast) was 82.9 µM and the TGI (COLO 205 colon) was greater than 85.8 µM. For the same compound, the TGI (HCC-2998 colon) was 98.4 µM, the TGI (HOP-92 NSCLC) was greater than 100 µM and the TGI (SK-MEL-2 melanoma) was greater than 100 µM. The TGI (NCI-H460 lung) was greater than 100 µM, the TGI (SR leukemia) was 88.7 µM and the TGI (MDA-MB-231 breast) was greater than 100 µM. For the same compound, the TGI (MALME-3M melanoma) was 94.6 µM, the TGI (OVCAR-8 ovarian) was greater than 100 µM and the TGI (NCI-H23 lung) was greater than 100 µM. For the same compound, the TGI (MDA-N) was greater than 73.4 µM and the TGI (MDA-MB-435) was 62.7 µM.

`O=C1C=CC(=O)c2c(O)c(N(CCCl)CCCl)c(Cl)c(O)c21` showed a TGI (A549 NSCLC) greater than 10 µM, a TGI (SNB-75 CNS) greater than 10 µM and a TGI (SN12C renal) greater than 7.71 µM. The TGI (UO-31 renal) was greater than 7.1 µM, the TGI (IGROV1 ovarian) was greater than 7.99 µM and the TGI (K-562 leukemia) was greater than 10 µM. It also gave a TGI (EKVX NSCLC) greater than 10 µM, a TGI (SF-295 CNS) greater than 10 µM and a TGI (786-0 renal) greater than 7.67 µM. The TGI (SK-OV-3 ovarian) was greater than 10 µM, the TGI (NCI-H522 lung) was 6.01 µM and the TGI (NCI-H226 lung) was greater than 10 µM. It also gave a TGI (OVCAR-4 ovarian) of 6.24 µM, a TGI (OVCAR-5 ovarian) greater than 9.1 µM and a TGI (SNB-19 CNS) greater than 10 µM. The TGI (SF-539 CNS) was greater than 7.9 µM, the TGI (HT29 colon) was greater than 8.53 µM and the TGI (HOP-62 NSCLC) was greater than 10 µM. It also gave a TGI (DU-145 prostate) greater than 10 µM, a TGI (KM12 colon) greater than 9.63 µM and a TGI (LOX IMVI melanoma) of 6.25 µM. The TGI (M14 melanoma) was 6.06 µM, the TGI (SK-MEL-5 melanoma) was 7.41 µM and the TGI (RPMI-8226 leukemia) was greater than 10 µM. It also gave a TGI (OVCAR-3 ovarian) of 7.25 µM, a TGI (CAKI-1 renal) of 6.51 µM and a TGI (MCF7 breast) greater than 8.33 µM. For the same compound, the TGI (MOLT-4 leukemia) was greater than 10 µM, the TGI (A498 renal) was greater than 9.53 µM and the TGI (UACC-257 melanoma) was 5.23 µM. It also gave a TGI (RXF 393 renal) greater than 6.69 µM, a TGI (TK-10 renal) of 4.93 µM and a TGI (U251 CNS) greater than 9.09 µM. For the same compound, the TGI (SK-MEL-28 melanoma) was greater than 6.98 µM, the TGI (HCT-116 colon) was 5.68 µM and the TGI (UACC-62 melanoma) was greater than 7.71 µM. It also gave a TGI (HL-60(TB) leukemia) greater than 10 µM, a TGI (T-47D breast) of 6.57 µM and a TGI (SF-268 CNS) greater than 8.4 µM. For the same compound, the TGI (SW-620 colon) was 6.56 µM, the TGI (PC-3 prostate) was greater than 8.55 µM and the TGI (HS 578T breast) was greater than 10 µM. For the same compound, the TGI (CCRF-CEM leukemia) was greater than 7.38 µM, the TGI (ACHN renal) was 5.6 µM and the TGI (HCT-15 colon) was greater than 8.58 µM. For the same compound, the TGI (NCI/ADR-RES ovarian) was greater than 10 µM, the TGI (BT-549 breast) was greater than 7.26 µM and the TGI (COLO 205 colon) was 5.57 µM. It also gave a TGI (HCC-2998 colon) greater than 10 µM, a TGI (HOP-92 NSCLC) of 5.78 µM and a TGI (SK-MEL-2 melanoma) greater than 7.91 µM. The TGI (NCI-H460 lung) was greater than 10 µM, the TGI (SR leukemia) was greater than 10 µM and the TGI (MDA-MB-231 breast) was 6.75 µM. For the same compound, the TGI (MALME-3M melanoma) was 5.79 µM, the TGI (OVCAR-8 ovarian) was 6.9 µM and the TGI (NCI-H23 lung) was greater than 8.05 µM. For the same compound, the TGI (MDA-N) was 5.79 µM and the TGI (MDA-MB-435) was 5.83 µM.
